Here are results for nine compounds from patent US11981658B2, “Substituted aminopyridine compounds as EGFR inhibitors” (YUHAN CORPORATION, priority 2021, dated 2024).

Assay [1] addresses EGFR wildtype (WT) (Homo sapiens, UniProt P00533). As to the kind of experiment: Biochemical EGFR kinase inhibition assay (Lance Ultra TR-FRET), wildtype. An outline of the steps:
(§1)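 Step 1: compound in kinase buffer, 0.003–10 μM. Step 2: kinase reaction 1 h at room temperature. Step 4: TR-FRET read at 615/665 nm; IC50 calculated.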
(In general: Time-resolved FRET reads energy transfer from a long-lived donor to a nearby acceptor.)

The target of assay [2] is EGFR L858R/T790M/C797S (Homo sapiens, UniProt P00533, C797S/L858R/T790M). As to the kind of experiment: Biochemical EGFR kinase inhibition assay (Lance Ultra TR-FRET), triple mutant L858R/T790M/C797S. In outline: as §1
For assay [3], the target named is EGFR Del19/C797S (Homo sapiens, UniProt P00533, C797S/DEL746-750). Description: Biochemical EGFR kinase inhibition assay (Lance Ultra TR-FRET), double mutant del19/C797S. In outline: as §1
EGFR Del19/C797S, sequence (P00533 with tags, fused parts or gaps DEL746-750/C797S): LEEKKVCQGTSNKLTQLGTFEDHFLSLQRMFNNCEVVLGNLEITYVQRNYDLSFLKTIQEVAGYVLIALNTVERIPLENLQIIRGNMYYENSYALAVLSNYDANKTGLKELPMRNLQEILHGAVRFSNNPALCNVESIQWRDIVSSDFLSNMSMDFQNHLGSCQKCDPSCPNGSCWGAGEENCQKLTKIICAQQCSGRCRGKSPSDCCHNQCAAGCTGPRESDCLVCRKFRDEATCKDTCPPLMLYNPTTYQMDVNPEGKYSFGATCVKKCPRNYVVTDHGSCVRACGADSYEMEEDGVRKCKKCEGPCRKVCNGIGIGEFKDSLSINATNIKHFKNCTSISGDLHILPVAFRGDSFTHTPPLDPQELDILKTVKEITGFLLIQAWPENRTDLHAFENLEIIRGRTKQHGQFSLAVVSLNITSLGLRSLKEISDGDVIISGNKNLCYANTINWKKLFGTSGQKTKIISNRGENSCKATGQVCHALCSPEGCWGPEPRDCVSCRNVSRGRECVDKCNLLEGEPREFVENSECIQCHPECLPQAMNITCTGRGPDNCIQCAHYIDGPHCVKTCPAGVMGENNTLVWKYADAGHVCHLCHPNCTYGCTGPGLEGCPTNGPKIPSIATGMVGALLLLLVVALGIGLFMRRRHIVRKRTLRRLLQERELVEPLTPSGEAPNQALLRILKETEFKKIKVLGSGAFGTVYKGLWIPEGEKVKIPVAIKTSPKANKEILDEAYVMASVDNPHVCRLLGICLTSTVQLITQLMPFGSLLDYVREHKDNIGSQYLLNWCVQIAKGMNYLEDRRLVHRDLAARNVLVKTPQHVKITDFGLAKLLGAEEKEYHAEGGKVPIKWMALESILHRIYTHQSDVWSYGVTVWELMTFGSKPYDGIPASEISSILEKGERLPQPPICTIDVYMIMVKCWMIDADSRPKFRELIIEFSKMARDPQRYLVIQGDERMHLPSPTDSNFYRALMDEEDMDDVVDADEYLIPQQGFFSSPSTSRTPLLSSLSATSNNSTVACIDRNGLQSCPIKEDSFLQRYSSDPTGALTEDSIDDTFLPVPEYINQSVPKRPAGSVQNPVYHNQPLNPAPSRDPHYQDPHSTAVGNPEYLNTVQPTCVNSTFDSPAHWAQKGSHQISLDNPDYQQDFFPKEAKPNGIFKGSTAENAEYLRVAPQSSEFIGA
Assay [4] concerns the target EGFR Del19/T790M/C797S (Homo sapiens, UniProt P00533, C797S/DEL746-750/T790M). As to the kind of experiment: Biochemical EGFR kinase inhibition assay (Lance Ultra TR-FRET), triple mutant del19/T790M/C797S. An outline of the steps: as §1
Assay [5] deals with EGFR L858R/C797S (Homo sapiens, UniProt P00533, C797S/L858R). Description: Biochemical EGFR kinase inhibition assay (Lance Ultra TR-FRET), double mutant L858R/C797S. An outline of the steps:
as §1

Where [6] appears, read: ATP at Km, read-out: IC50 WT (nM), Km ATP.
Where [7] appears, read: ATP at Km, read-out: IC50 L858R/T790M/C797S (nM), Km ATP.
[8] abbreviates: IC50 L858R/T790M/C797S (nM), 100 μM ATP.
Where [9] appears, read: ATP at Km, read-out: IC50 Del19/C797S (nM), Km ATP.
[10] abbreviates: IC50 Del19/C797S (nM), 100 μM ATP.
[11] abbreviates: ATP at Km, read-out: IC50 Del19/T790M/C797S (nM), Km ATP.
The mark [12] stands for this setting: IC50 Del19/T790M/C797S (nM), 100 μM ATP.
[13] abbreviates: ATP at Km, read-out: IC50 L858R/C797S (nM), Km ATP.
[14] abbreviates: IC50 L858R/C797S (nM), 100 μM ATP.
Where [15] appears, read: Km ATP, read-out: IC50 WT (nM), Km ATP.
[16] abbreviates: Km ATP, read-out: IC50 L858R/T790M/C797S (nM), Km ATP.
Setting [17] is: Km ATP, read-out: IC50 Del19/C797S (nM), Km ATP.
Setting [18] is: Km ATP, read-out: IC50 Del19/T790M/C797S (nM), Km ATP.
[19] abbreviates: Km ATP, read-out: IC50 L858R/C797S (nM), Km ATP.

Read-outs that look alike come from different tables or passages of the source.

EGFR L858R/C797S, sequence (P00533 25-1210 C797S/L858R): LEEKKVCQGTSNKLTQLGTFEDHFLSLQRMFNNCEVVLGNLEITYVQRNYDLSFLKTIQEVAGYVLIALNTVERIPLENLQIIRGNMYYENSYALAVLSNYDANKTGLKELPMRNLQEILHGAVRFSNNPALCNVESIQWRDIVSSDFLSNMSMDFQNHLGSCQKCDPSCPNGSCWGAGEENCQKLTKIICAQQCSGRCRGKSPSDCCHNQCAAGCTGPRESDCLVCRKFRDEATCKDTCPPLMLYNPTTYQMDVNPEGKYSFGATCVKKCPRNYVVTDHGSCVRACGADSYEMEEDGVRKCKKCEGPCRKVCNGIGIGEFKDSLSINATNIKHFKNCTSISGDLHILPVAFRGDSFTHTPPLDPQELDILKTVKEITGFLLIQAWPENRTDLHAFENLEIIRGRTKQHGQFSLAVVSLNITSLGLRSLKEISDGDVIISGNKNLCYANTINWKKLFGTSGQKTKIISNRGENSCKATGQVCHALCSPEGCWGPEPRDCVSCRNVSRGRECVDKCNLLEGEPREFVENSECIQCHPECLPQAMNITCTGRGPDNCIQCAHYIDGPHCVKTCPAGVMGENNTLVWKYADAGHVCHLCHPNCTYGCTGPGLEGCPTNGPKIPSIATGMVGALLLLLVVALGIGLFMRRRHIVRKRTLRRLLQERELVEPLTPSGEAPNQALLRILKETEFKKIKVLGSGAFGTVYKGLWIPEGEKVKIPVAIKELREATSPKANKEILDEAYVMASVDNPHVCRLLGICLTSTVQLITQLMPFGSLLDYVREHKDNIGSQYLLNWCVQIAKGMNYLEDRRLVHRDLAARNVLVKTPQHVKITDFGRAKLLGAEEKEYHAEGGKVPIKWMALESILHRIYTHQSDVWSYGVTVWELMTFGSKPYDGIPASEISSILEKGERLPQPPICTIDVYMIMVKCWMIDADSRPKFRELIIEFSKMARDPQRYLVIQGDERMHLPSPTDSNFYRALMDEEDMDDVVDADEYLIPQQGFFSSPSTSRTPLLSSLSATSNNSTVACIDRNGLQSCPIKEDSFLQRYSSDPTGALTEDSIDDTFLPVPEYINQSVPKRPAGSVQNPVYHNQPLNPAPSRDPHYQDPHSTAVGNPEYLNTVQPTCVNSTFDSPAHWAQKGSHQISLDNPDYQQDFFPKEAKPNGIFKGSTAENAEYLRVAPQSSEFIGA
EGFR Del19/T790M/C797S, sequence (P00533 with tags, fused parts or gaps DEL746-750/T790M/C797S): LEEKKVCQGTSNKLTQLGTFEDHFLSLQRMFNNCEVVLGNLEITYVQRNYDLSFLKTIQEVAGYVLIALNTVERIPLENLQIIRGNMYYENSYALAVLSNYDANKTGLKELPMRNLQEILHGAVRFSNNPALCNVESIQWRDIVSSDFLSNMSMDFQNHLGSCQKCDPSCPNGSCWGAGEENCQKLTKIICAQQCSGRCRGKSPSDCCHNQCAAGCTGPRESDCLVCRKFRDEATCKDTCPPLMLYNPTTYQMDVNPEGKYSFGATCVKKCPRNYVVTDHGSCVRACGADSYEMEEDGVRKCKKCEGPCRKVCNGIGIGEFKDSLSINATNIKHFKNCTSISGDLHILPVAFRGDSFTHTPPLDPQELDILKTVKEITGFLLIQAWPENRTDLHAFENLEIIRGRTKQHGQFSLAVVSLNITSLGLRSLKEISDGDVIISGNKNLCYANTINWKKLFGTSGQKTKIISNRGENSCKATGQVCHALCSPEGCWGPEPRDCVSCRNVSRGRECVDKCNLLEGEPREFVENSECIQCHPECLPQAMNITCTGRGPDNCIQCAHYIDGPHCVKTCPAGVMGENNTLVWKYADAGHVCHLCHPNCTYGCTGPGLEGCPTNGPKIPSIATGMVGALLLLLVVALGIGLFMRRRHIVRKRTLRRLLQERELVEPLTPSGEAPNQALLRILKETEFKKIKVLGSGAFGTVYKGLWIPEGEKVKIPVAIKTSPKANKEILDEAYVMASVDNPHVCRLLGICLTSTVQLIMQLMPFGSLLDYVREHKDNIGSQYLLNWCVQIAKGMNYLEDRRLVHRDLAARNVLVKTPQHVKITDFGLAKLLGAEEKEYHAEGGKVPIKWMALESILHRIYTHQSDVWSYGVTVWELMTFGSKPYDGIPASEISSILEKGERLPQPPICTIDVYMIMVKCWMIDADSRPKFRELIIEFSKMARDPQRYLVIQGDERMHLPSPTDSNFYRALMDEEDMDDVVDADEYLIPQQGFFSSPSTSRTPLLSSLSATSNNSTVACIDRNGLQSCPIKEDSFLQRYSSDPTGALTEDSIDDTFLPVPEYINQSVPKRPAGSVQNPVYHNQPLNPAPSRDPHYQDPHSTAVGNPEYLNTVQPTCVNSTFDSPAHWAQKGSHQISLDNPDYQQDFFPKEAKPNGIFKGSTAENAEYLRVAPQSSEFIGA
EGFR wildtype (WT), sequence (P00533 25-1210): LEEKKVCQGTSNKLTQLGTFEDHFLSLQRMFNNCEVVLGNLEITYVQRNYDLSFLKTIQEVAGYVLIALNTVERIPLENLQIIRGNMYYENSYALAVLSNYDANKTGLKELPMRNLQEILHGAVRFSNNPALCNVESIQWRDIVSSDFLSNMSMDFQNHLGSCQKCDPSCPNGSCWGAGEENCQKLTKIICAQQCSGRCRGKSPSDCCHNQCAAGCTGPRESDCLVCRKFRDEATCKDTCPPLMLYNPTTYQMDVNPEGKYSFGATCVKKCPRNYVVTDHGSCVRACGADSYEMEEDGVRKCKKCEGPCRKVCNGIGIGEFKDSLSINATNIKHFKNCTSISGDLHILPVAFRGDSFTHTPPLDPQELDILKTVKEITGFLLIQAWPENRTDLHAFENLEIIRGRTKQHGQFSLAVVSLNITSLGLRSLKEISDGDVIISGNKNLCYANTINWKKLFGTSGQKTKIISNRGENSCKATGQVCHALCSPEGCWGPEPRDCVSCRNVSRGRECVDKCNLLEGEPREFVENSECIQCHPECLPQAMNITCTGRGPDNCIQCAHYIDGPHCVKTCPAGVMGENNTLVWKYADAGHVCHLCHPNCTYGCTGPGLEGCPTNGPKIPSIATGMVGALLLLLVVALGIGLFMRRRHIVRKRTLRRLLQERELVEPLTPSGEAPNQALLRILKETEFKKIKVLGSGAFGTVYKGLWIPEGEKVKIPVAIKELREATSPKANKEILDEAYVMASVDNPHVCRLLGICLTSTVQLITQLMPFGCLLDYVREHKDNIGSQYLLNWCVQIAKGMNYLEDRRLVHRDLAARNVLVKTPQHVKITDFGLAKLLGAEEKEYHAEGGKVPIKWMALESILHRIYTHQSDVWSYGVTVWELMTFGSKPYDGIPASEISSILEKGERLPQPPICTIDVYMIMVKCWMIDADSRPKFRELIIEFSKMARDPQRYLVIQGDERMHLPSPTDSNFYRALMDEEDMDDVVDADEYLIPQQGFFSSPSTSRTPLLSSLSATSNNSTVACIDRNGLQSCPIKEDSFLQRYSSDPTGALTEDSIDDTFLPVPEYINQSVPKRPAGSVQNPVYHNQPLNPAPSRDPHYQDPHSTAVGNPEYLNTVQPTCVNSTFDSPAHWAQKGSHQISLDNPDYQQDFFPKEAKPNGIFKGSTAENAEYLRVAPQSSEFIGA

`CN(C)C(=O)c1cccc(C#Cc2cnc(Nc3ccnc(-c4cnn(S(=O)(=O)C5CC5)c4)n3)cc2N2CCC(C)(CO)CC2)n1` [Example 264, 6-((6-((2-(1-(Cyclopropylsulfonyl)-1H-pyrazol-4-yl)pyrimidin-4-yl)amino)-4-(4-(hydroxymethyl)-4-methylpiperidin-1-yl)pyridin-3-yl)ethynyl)-N,N-dimethylpicolinamide]: the IC50 is 9.9 nM in assay [1] (setting [6]); above 10000 nM in assay [1] (IC50 WT (nM), 100 μM ATP); 0.3 nM in assay [2] (setting [7]); 0.8 nM in assay [2] (setting [8]); 1 nM in assay [3] (setting [9]); 1.8 nM in assay [3] (setting [10]). For the same compound, the IC50 in assay [4] (setting [11]) stood at 0.7 nM; in assay [4] (setting [12]), 0.9 nM; in assay [5] (setting [13]), 1.3 nM; in assay [5] (setting [14]), 14.1 nM.
`CC(C)(O)CC#Cc1cnc(Nc2ccnc(-c3cnn(S(=O)(=O)C4CC4)c3)n2)cc1N1CCC(C)(CO)CC1` [Example 284, 5-(6-((2-(1-(Cyclopropylsulfonyl)-1H-pyrazol-4-yl)pyrimidin-4-yl)amino)-4-(4-(hydroxymethyl)-4-methylpiperidin-1-yl)pyridin-3-yl)-2-methylpent-4-yn-2-ol]: the IC50 was found to be 12.6 nM in assay [1] (setting [6]); 7270 nM in assay [1] (IC50 WT (nM), 100 μM ATP); 1.7 nM in assay [2] (setting [8]); 2.8 nM in assay [3] (setting [9]); 6.8 nM in assay [3] (setting [10]); 1.1 nM in assay [4] (setting [11]). Also, the IC50 in assay [4] (setting [12]) was 4.4 nM; in assay [5] (setting [13]), 1.7 nM; in assay [5] (setting [14]), 15.9 nM.
Consider `CC1(CO)CCN(c2cc(Nc3ccnc(-c4cnn(S(=O)(=O)C5CC5)c4)n3)ncc2C#CC2CCOC2)CC1` (centres unmarked) [Example 197, (1-(2-((2-(1-(Cyclopropylsulfonyl)-1H-pyrazol-4-yl)pyrimidin-4-yl)amino)-5-((tetrahydrofuran-3-yl)ethynyl)pyridin-4-yl)-4-methylpiperidin-4-yl)methanol], for which the IC50 in assay [1] (setting [6]) worked out at 5.6 nM; in assay [1] (IC50 WT (nM), 100 μM ATP), 1560 nM; in assay [2] (setting [7]), 0.1 nM; in assay [2] (setting [8]) it was 0.3 nM; in assay [3] (setting [9]) it was 0.6 nM; in assay [3] (setting [10]), 0.8 nM. Besides, the IC50 in assay [4] (setting [11]) amounted to 0.3 nM; in assay [4] (setting [12]), 0.3 nM; in assay [5] (setting [13]), 0.8 nM; in assay [5] (setting [14]), 8.9 nM.
For the compound `O=S(=O)(C1CC1)n1cc(-c2nccc(Nc3cc(N4CCC[C@H](O)C4)c(C#Cc4cnn(C(F)(F)F)c4)cn3)n2)cn1` [Example 439, (S)-1-(2-((2-(1-(Cyclopropylsulfonyl)-1H-pyrazol-4-yl)pyrimidin-4-yl)amino)-5-((1-(trifluoromethyl)-1H-pyrazol-4-yl)ethynyl)pyridin-4-yl)piperidin-3-ol], the IC50 is above 10000 nM in assay [1] (IC50 WT (nM), 100 μM ATP); 122 nM in assay [1] (setting [15]); 3.7 nM in assay [2] (setting [8]); 1.3 nM in assay [2] (setting [16]); 24.5 nM in assay [3] (setting [10]); 12.5 nM in assay [3] (setting [17]). The IC50 worked out at 1.7 nM in assay [4] (setting [12]), 2.1 nM in assay [4] (setting [18]), 62.7 nM in assay [5] (setting [14]) and 11.1 nM in assay [5] (setting [19]).
In the case of `Nc1cccc(C#Cc2cnc(Nc3ccnc(-c4cnn(S(=O)(=O)C5CC5)c4)n3)cc2N[C@@H]2CCC[C@H](O)C2)c1` [Example 169, (1 S,3R)-3-((5-((3-Aminophenyl)ethynyl)-2-((2-(1-(cyclopropylsulfonyl)-1H-pyrazol-4-yl)pyrimidin-4-yl)amino)pyridin-4-yl)amino)cyclohexan-1-ol], the IC50 was 238 nM in assay [1] (setting [6]); above 10000 nM in assay [1] (IC50 WT (nM), 100 μM ATP); 2.6 nM in assay [2] (setting [7]); 6.8 nM in assay [2] (setting [8]); 4.7 nM in assay [3] (setting [9]); 10.5 nM in assay [3] (setting [10]). For the same compound, the IC50 in assay [4] (setting [11]) was found to be 7.1 nM; in assay [4] (setting [12]), 3.1 nM; in assay [5] (setting [13]) it was 30.6 nM; in assay [5] (setting [14]) it was 391 nM.
For the compound `CC1(CO)CCN(c2cc(Nc3ccnc(-c4cnn(S(=O)(=O)C5CC5)c4)n3)ncc2C#Cc2cnn(CC3COCCO3)c2)CC1` (centres unmarked) [Example 242, (1-(5-((1-((1,4-Dioxan-2-yl)methyl)-1H-pyrazol-4-yl)ethynyl)-2-((2-(1-(cyclopropylsulfonyl)-1H-pyrazol-4-yl)pyrimidin-4-yl)amino)pyridin-4-yl)-4-methylpiperidin-4-yl)methanol], the IC50 in assay [1] (setting [6]) is 4.6 nM; in assay [1] (IC50 WT (nM), 100 μM ATP), 2610 nM; in assay [2] (setting [7]), 0.4 nM; in assay [2] (setting [8]), 1.6 nM; in assay [3] (setting [9]), 0.7 nM; in assay [3] (setting [10]), 0.6 nM. The IC50 in assay [4] (setting [11]) was determined as 0.8 nM; in assay [4] (setting [12]), 1 nM; in assay [5] (setting [13]) it was 1 nM; in assay [5] (setting [14]), 13.8 nM.
Turning to `CS(=O)(=O)N1CCC(C#Cc2cnc(Nc3ccnc(-c4cnn(S(=O)(=O)C5CC5)c4)n3)cc2NCC2CCC(O)CC2)C1` (centres unmarked) [Example 398, (1 r,4r)-4-(((2-((2-(1-(Cyclopropylsulfonyl)-1H-pyrazol-4-yl)pyrimidin-4-yl)amino)-5-((1-(methylsulfonyl)pyrrolidin-3-yl)ethynyl)pyridin-4-yl)amino)methyl)cyclohexan-1-ol], the IC50 was above 10000 nM in assay [1] (IC50 WT (nM), 100 μM ATP); 294 nM in assay [1] (setting [15]); 29.3 nM in assay [2] (setting [8]); 24.7 nM in assay [2] (setting [16]); 44.3 nM in assay [3] (setting [10]); 16.6 nM in assay [3] (setting [17]). Also, the IC50 in assay [4] (setting [12]) was found to be 14.9 nM; in assay [4] (setting [18]), 26.7 nM; in assay [5] (setting [14]), 971 nM; in assay [5] (setting [19]), 17.8 nM.
With `CC1(CO)CCN(c2cc(Nc3ccnc(-c4cnn(S(=O)(=O)C5CC5)c4)n3)ncc2C#CC2CCOCC2)CC1` [Example 179, (1-(2-((2-(1-(Cyclopropylsulfonyl)-1H-pyrazol-4-yl)pyrimidin-4-yl)amino)-5-((tetrahydro-2H-pyran-4-yl)ethynyl)pyridin-4-yl)-4-methylpiperidin-4-yl)methanol], the IC50 in assay [1] (setting [6]) is 6.2 nM; in assay [1] (IC50 WT (nM), 100 μM ATP), 3880 nM; in assay [2] (setting [7]) it was 0.2 nM; in assay [2] (setting [8]), 0.3 nM; in assay [3] (setting [9]), 0.8 nM; in assay [3] (setting [10]), 1.9 nM. The IC50 in assay [4] (setting [11]) is 0.4 nM; in assay [4] (setting [12]), 0.5 nM; in assay [5] (setting [13]), 1.5 nM; in assay [5] (setting [14]), 13.4 nM.
Regarding `CN(C)CC1CCN(c2cc(Nc3ccnc(-c4cnn(S(=O)(=O)C5CC5)c4)n3)ncc2C#Cc2cnn(C3CC3)c2)CC1` [Example 298, N-(5-((1-Cyclopropyl-1H-pyrazol-4-yl)ethynyl)-4-(4-((dimethylamino)methyl)piperidin-1-yl)pyridin-2-yl)-2-(1-(cyclopropylsulfonyl)-1H-pyrazol-4-yl)pyrimidin-4-amine], the IC50 in assay [1] (setting [6]) was 23 nM; in assay [1] (IC50 WT (nM), 100 μM ATP), above 10000 nM; in assay [2] (setting [7]), 0.4 nM; in assay [2] (setting [8]), 1.5 nM; in assay [3] (setting [9]) it was 5.3 nM; in assay [3] (setting [10]) it was 12 nM. Also, the IC50 in assay [4] (setting [11]) stood at 0.3 nM; in assay [4] (setting [12]), 0.4 nM; in assay [5] (setting [13]), 18.5 nM; in assay [5] (setting [14]), 140 nM.
